Laboratory results reported in patent publication US10689343B2, “Inhibitors of tryptophan 2,3-dioxygenase” (NETHERLANDS TRANSLATIONAL RESEARCH CENTER B.V., priority 2016, dated 2020).

How the values were obtained:
CYP3A4 = CYP3A4 (Homo sapiens, UniProt P08684); experiment: P450-Glo CYP3A4 luciferin isopropylacetal (Luc-IP) assay
Recombinant TDO = target: T1, Recombinant TDO (Homo sapiens, UniProt P48775); experiment: Biochemical assay for TDO (NFK GreenScreen); settings: 50 nM TDO, 200 μM L-tryptophan
T1 construct: Recombinant TDO (Seegers, N., et al.) and all other assay components were diluted in TDO reaction buffer
T1 sequence (P48775 whole entry): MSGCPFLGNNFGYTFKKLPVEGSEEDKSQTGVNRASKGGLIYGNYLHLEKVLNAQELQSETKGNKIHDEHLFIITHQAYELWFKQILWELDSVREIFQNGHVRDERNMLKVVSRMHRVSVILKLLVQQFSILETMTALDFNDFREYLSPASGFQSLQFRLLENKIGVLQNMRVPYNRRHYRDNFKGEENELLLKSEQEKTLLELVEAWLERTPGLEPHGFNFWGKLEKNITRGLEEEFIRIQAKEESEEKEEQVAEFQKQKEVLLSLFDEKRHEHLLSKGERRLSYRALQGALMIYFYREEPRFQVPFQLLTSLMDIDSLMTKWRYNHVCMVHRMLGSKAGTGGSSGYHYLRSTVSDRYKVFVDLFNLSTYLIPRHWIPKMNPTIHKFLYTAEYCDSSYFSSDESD
Description: Biochemical Assay for TDO
The NFK GreenScreen™ assay technology was also used to determine the inhibitory activity of compounds on TDO (Seegers, N., et al., J. Biol. Screen. 19: 1266; 2014). Compounds were serially diluted in DMSO and finally in TDO reaction buffer, consisting of 100 mM NaH2PO4, pH 7.0, supplemented with 0.02% Tween-20 (cat. No. P7949; Sigma Aldrich). Recombinant TDO (Seegers, N., et al.) and all other assay components were diluted in TDO reaction buffer. 10 μl of compound solution and 20 μl of enzyme solution supplemented with 200 μM ascorbic acid were combined in the well of a black 384-well plate (cat. no. 3573; Corning, Corning, N.Y., USA), and incubated for 60 min at room temperature. Subsequently, 10 μl of 0.8 mM of the substrate L-tryptophan was added, i.e., the final concentration of L-tryptophan was 200 μM. The DMSO concentration in the assay was 0.3%. The concentration of TDO was 50 nM. Incubation was continued for 15 min at room temperature. Then, 10 μl of NFK Green™ (NTRC, Oss, The Netherlands) was added, the plate was sealed, and the reaction was developed for 3 hours at 37° C. To determine the production of N-formyl kynurenine (NFK), the seal was removed and fluorescence was read on an EnVision multimode reader (Perkin Elmer, Waltham, Mass., USA). IC50 were calculated using XLfit™ software (ID Business Solutions, Ltd., Surrey, U.K.).

CYP2D6 = CYP2D6 (Homo sapiens, UniProt P10635); experiment: P450-Glo CYP2D6 Luc-IP assay
Chain of CYP2D6 (P10635 whole entry): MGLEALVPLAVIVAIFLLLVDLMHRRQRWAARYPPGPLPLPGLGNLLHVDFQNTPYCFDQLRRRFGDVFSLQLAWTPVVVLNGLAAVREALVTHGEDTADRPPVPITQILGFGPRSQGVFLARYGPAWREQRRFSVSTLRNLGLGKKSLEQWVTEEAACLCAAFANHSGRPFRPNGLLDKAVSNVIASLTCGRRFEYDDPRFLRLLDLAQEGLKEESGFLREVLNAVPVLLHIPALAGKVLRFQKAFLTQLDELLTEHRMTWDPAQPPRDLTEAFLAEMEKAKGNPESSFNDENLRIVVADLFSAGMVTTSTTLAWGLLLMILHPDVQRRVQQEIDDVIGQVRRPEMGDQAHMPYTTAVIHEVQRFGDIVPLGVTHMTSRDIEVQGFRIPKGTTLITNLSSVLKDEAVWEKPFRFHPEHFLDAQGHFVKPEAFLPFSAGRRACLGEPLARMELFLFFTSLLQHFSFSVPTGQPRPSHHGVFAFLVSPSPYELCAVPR

Chain of CYP3A4 (P08684 whole entry): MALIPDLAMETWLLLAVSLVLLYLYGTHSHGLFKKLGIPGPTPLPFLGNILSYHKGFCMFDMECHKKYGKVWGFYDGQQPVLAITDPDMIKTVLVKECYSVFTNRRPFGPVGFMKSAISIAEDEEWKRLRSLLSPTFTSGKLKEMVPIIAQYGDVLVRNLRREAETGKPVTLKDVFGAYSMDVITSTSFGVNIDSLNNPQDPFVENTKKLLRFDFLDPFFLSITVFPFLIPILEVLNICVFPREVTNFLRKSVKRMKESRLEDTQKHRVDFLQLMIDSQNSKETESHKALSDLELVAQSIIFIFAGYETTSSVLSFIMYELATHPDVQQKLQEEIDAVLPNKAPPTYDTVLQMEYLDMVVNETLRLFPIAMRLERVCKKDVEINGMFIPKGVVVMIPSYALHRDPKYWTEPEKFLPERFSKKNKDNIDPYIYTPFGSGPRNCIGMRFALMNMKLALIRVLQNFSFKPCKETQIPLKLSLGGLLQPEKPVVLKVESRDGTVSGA

| SMILES | IC50 (CYP3A4) | IC50 (Recombinant TDO) | IC50 (CYP2D6) |
| --- | --- | --- | --- |
| CNC(=O)Nc1ccc(-c2c[nH]c3cc(F)ccc23)cc1 [Example 5, 1-[4-(6-Fluoro-1H-indol-3-yl)phenyl]-3-methyl-urea] | > 10 µM | < 1 µM | > 10 µM |
| CCNC(=O)Nc1ccc(-c2c[nH]c3cc(F)ccc23)cc1 [Example 6, 1-Ethyl-3-[4-(6-fluoro-1H-indol-3-yl)phenyl]urea] | > 10 µM | 1 to 5 µM | > 10 µM |
| CN(C)C(=O)Nc1ccc(-c2c[nH]c3cc(F)ccc23)cc1 [Example 7, 3-[4-(6-Fluoro-1H-indol-3-yl)phenyl]-1,1-dimethyl-urea] | > 10 µM | 1 to 5 µM | > 10 µM |
| O=C(NCC1CC(F)(F)C1)c1ccc(-c2c[nH]c3cc(F)ccc23)cc1 [Example 9, N-[(3,3-difluorocyclobutyl)methyl]-4-(6-fluoro-1H-indol-3-yl)benzamide] | > 10 µM | < 1 µM | > 10 µM |
| COC(=O)[C@@H](C)NC(=O)c1ccc(-c2c[nH]c3cc(F)ccc23)cc1 [Example 18, Methyl (2R)-2-[[4-(6-fluoro-1H-indol-3-yl)benzoyl]amino]propanoate] | > 10 µM | < 1 µM | > 10 µM |
| CCCC(C)NC(=O)c1ccc(-c2c[nH]c3cc(F)ccc23)cc1 (centres unmarked) [Example 22, 4-(6-Fluoro-1H-indol-3-yl)-N-(1-methylbutyl)benzamide] | > 10 µM | < 1 µM | > 10 µM |
| O=C(CC1CC1)Nc1ccc(-c2c[nH]c3cc(F)ccc23)cc1 [Example 28, 2-Cyclopropyl-N-[4-(6-fluoro-1H-indol-3-yl)phenyl]acetamide] | > 10 µM | 1 to 5 µM | > 10 µM |
| CCNCC(=O)Nc1ccc(-c2c[nH]c3cc(F)ccc23)cc1 [Example 29, 2-(Ethylamino)-N-[4-(6-fluoro-1H-indol-3-yl)phenyl]acetamide] | > 10 µM | < 1 µM | > 10 µM |
| O=C(CC1COC1)Nc1ccc(-c2c[nH]c3cc(F)ccc23)cc1 [Example 30, N-[4-(6-fluoro-1H-indol-3-yl)phenyl]-2-(oxetan-3-yl)acetamide] | > 10 µM | < 1 µM | > 10 µM |
| N#CCC(=O)Nc1ccc(-c2c[nH]c3cc(F)ccc23)cc1 [Example 32, 2-Cyano-N-[4-(6-fluoro-1H-indol-3-yl)phenyl]acetamide] | > 10 µM | < 1 µM | > 10 µM |
| COCC(C)C(=O)Nc1ccc(-c2c[nH]c3cc(F)ccc23)cc1 (centres unmarked) [Example 33, N-[4-(6-fluoro-1H-indol-3-yl)phenyl]-3-methoxy-2-methyl-propanamide] | > 10 µM | < 1 µM | > 10 µM |
| C[C@H](O)CC(=O)Nc1ccc(-c2c[nH]c3cc(F)ccc23)cc1 [Example 34, (3S)—N-[4-(6-fluoro-1H-indol-3-yl)phenyl]-3-hydroxy-butanamide] | > 10 µM | < 1 µM | > 10 µM |
| CC(C)(O)CC(=O)Nc1ccc(-c2c[nH]c3cc(F)ccc23)cc1 [Example 35, N-[4-(6-fluoro-1H-indol-3-yl)phenyl]-3-hydroxy-3-methyl-butanamide] | > 10 µM | < 1 µM | > 10 µM |
| C[C@H](CO)NC(=O)c1ccc(-c2c[nH]c3ccc(F)cc23)cc1 [Example 37, 4-(5-Fluoro-1H-indol-3-yl)-N-[(1R)-2-hydroxy-1-methyl-ethyl]benzamide] | > 10 µM | < 1 µM | > 10 µM |
| CN(C)CCCNC(=O)c1ccc(-c2c[nH]c3ccc(F)cc23)cc1 [Example 38, N-[3-(dimethylamino)propyl]-4-(5-fluoro-1H-indol-3-yl)benzamide] | > 10 µM | < 1 µM | > 10 µM |
| O=C(NCC(F)(F)F)c1ccc(-c2c[nH]c3ccc(F)cc23)cc1 [Example 39, 4-(5-Fluoro-1H-indol-3-yl)-N-(2,2,2-trifluoroethyl)benzamide] | > 10 µM | < 1 µM | > 10 µM |
| C[C@@H](CO)NC(=O)c1ccc(-c2c[nH]c3ccc(F)cc23)cc1 [Example 40, 4-(5-Fluoro-1H-indol-3-yl)-N-[(1S)-2-hydroxy-1-methyl-ethyl]benzamide] | > 10 µM | < 1 µM | > 10 µM |

| SMILES | IC50 (CYP3A4) | IC50 (Recombinant TDO) | IC50 (CYP2D6) |
| --- | --- | --- | --- |
| O=C(N[C@H]1CCCNC1)c1ccc(-c2c[nH]c3ccc(F)cc23)cc1 [Example 41, 4-(5-Fluoro-1H-indol-3-yl)-N-[(3S)-3-piperidyl]benzamide] | > 10 µM | < 1 µM | > 10 µM |
| O=C(NOC(CO)CO)c1ccc(-c2c[nH]c3cc(F)ccc23)cc1 [Example 65, 4-(6-Fluoro-1H-indol-3-yl)-N-[2-hydroxy-1-(hydroxymethyl)ethoxy]benzamide] | 5 to 10 µM | < 1 µM | > 10 µM |
| O=C(NOC[C@H](O)CO)c1ccc(-c2c[nH]c3cc(F)ccc23)cc1 [Example 67, N-[(2R)-2,3-dihydroxypropoxy]-4-(6-fluoro-1H-indol-3-yl)benzamide] | 5 to 10 µM | < 1 µM | > 10 µM |
| Nc1ccn(C(=O)c2ccc(-c3c[nH]c4cc(F)ccc34)cc2)n1 [Example 85, (3-Aminopyrazol-1-yl)-[4-(6-fluoro-1H-indol-3-yl)phenyl]methanone] | > 10 µM | 1 to 5 µM | 5 to 10 µM |
| C[C@H](NC(=O)c1ccc(-c2c[nH]c3cc(F)ccc23)cc1)C(C)(C)C [Example 88, 4-(6-Fluoro-1H-indol-3-yl)-N-[(1S)-1,2,2-trimethylpropyl]benzamide] | > 10 µM | 1 to 5 µM | > 10 µM |
| O=C(NCC1(O)CCCCC1)c1ccc(-c2c[nH]c3cc(F)ccc23)cc1 [Example 89, 4-(6-Fluoro-1H-indol-3-yl)-N-[(1-hydroxycyclohexyl)methyl]benzamide] | > 10 µM | 1 to 5 µM | > 10 µM |
| NCCNC(=O)c1ccc(-c2c[nH]c3cc(F)ccc23)cc1 [Example 90, N-(2-aminoethyl)-4-(6-fluoro-1H-indol-3-yl)benzamide] | > 10 µM | < 1 µM | > 10 µM |
| O=C(NC[C@H]1CCNC1)c1ccc(-c2c[nH]c3cc(F)ccc23)cc1 [Example 91, 4-(6-Fluoro-1H-indol-3-yl)-N-[[(3S)-pyrrolidin-3-yl]methyl]benzamide] | 5 to 10 µM | < 1 µM | > 10 µM |
| CC(C)NC(=S)N1CCC[C@@H](CNC(=O)c2ccc(-c3c[nH]c4cc(F)ccc34)cc2)C1 [Example 92, 4-(6-Fluoro-1H-indol-3-yl)-N-[[(3S)-1-(isopropylcarbamothioyl)-3-piperidyl]methyl]benzamide] | > 10 µM | 1 to 5 µM | > 10 µM |
| O=C(CCc1ccccc1)Nc1ccc(-c2c[nH]c3cc(F)ccc23)cc1 [Example 96, N-[4-(6-fluoro-1H-indol-3-yl)phenyl]-3-phenyl-propanamide] | > 10 µM | 1 to 5 µM | > 10 µM |
| O=C(CC1(O)CCCC1)Nc1ccc(-c2c[nH]c3cc(F)ccc23)cc1 [Example 98, N-[4-(6-fluoro-1H-indol-3-yl)phenyl]-2-(1-hydroxycyclopentyl)acetamide] | > 10 µM | < 1 µM | > 10 µM |
| Cc1cc(CC(=O)Nc2ccc(-c3c[nH]c4cc(F)ccc34)cc2)no1 [Example 99, N-[4-(6-Fluoro-/H-indol-3-yl)phenyl]-2-(5-methylisoxazol-3-yl)acetamide] | > 10 µM | 1 to 5 µM | > 10 µM |
| O=C(Nc1ccc(-c2c[nH]c3cc(F)ccc23)cc1)C1CCC1(F)F (centres unmarked) [Example 101, 2,2-Difluoro-N-[4-(6-fluoro-1H-indol-3-yl)phenyl]cyclobutanecarboxamide] | > 10 µM |  | > 10 µM |
| CN1CC(C(=O)Nc2ccc(-c3c[nH]c4cc(F)ccc34)cc2)CCC1=O (centres unmarked) [Example 108, N-[4-(6-fluoro-1H-indol-3-yl)phenyl]-1-methyl-6-oxo-piperidine-3-carboxamide] | > 10 µM | 1 to 5 µM | > 10 µM |
| CCOC(=O)N1CCCC(NC(=O)c2ccc(-c3c[nH]c4cc(F)ccc34)cc2)C1 (centres unmarked) [Example 121, Ethyl 3-[[4-(6-fluoro-1H-indol-3-yl)benzoyl]amino]piperidine-1-carboxylate] | > 10 µM | < 1 µM | > 10 µM |
| Cc1cc(C(=O)N[C@@H](C)CO)ccc1-c1c[nH]c2cc(F)ccc12 [Example 126, 4-(6-Fluoro-1H-indol-3-yl)-N-[(1S)-2-hydroxy-1-methyl-ethyl]-3-methyl-benzamide] | 5 to 10 µM | 1 to 5 µM | 5 to 10 µM |
